Key:
Test in all cases: KINOMEscan competition binding
[1] = molecular target: JNK2 (Homo sapiens, UniProt P45984); details: read-out: %Inh JNK2
[2] = molecular target: T1, ASK2 (Homo sapiens, UniProt O95382); details: read-out: %Inh ASK2
T1 sequence (O95382 1-1288): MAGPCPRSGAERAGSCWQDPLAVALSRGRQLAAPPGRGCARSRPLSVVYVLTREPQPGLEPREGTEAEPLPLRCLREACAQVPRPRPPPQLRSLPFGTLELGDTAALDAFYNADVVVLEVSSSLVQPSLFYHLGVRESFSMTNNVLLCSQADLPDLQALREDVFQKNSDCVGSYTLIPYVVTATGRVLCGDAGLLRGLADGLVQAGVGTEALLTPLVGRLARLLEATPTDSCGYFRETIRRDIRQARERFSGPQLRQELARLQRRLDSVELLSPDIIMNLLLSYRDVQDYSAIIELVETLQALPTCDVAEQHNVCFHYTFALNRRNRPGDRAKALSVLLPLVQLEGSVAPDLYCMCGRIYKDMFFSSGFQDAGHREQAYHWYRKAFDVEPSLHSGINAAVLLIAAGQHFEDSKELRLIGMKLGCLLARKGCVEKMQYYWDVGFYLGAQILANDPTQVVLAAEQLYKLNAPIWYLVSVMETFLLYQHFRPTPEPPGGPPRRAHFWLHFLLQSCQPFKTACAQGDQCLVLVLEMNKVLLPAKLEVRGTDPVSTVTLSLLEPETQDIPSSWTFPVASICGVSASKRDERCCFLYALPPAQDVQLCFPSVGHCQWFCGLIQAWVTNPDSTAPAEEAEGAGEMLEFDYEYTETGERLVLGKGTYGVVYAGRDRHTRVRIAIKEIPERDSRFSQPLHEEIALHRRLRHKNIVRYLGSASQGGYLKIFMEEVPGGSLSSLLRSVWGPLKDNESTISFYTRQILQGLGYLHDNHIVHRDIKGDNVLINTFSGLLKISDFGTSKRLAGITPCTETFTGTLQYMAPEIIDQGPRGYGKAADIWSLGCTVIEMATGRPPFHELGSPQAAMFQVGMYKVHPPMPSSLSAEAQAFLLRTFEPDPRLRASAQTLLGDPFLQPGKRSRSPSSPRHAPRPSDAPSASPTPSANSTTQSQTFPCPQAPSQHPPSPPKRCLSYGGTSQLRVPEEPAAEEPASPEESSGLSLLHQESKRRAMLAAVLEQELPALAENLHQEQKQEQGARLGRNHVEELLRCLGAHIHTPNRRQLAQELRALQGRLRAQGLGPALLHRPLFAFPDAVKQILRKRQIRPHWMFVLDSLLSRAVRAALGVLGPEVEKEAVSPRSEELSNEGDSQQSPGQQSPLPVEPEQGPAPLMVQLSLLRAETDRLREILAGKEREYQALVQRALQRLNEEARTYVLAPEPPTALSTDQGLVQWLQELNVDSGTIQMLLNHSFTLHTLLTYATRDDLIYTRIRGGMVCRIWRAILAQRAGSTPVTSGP

[3] = molecular target: CDK2 (Homo sapiens, UniProt P24941); details: read-out: %Inh CDK2
[4] = molecular target: GSK3A (Homo sapiens, UniProt P49840); details: read-out: %Inh GSK3A
Chain of GSK3A (P49840 whole entry): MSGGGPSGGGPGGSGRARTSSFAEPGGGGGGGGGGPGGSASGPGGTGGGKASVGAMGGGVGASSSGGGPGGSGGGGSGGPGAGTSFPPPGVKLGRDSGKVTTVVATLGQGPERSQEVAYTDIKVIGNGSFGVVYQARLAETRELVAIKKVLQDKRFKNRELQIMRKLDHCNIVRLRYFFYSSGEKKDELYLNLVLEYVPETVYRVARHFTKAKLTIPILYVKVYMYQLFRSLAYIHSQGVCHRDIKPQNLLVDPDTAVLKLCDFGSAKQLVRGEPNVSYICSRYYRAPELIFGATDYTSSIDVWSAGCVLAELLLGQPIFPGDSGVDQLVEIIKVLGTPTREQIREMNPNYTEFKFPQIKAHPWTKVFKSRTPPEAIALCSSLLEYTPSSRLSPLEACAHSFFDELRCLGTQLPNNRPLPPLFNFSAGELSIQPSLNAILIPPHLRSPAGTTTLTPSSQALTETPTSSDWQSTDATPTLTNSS

[5] = molecular target: BRK (Homo sapiens, UniProt Q13882); details: read-out: %Inh BRK
Chain of BRK (Q13882 whole entry): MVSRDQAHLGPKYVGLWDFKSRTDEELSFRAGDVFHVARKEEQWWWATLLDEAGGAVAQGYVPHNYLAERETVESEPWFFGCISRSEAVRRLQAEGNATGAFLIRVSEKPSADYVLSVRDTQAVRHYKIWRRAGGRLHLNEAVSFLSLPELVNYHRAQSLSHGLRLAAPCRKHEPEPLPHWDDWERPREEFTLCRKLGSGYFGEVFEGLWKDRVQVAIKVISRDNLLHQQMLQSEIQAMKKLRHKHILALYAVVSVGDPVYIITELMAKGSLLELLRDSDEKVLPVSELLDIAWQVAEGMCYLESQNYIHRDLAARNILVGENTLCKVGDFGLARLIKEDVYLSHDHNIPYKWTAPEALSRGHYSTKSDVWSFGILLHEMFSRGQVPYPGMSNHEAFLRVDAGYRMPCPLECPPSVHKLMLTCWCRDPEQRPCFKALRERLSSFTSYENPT

[6] = molecular target: CLK4 (Homo sapiens, UniProt Q9HAZ1); details: read-out: %Inh CLK4
Chain of CLK4 (Q9HAZ1 whole entry): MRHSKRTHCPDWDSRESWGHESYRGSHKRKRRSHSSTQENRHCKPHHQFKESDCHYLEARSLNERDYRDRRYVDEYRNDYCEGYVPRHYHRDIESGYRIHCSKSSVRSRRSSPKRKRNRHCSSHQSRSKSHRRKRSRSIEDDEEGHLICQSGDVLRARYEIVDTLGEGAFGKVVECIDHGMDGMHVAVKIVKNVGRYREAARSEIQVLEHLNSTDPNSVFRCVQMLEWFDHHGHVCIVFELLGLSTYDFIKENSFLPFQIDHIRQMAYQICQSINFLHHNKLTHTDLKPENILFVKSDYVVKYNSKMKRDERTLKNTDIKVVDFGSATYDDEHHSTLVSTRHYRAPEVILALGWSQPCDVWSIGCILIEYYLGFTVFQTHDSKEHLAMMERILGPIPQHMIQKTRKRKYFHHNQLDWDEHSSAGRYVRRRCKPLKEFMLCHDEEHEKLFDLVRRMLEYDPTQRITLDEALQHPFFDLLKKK

[7] = molecular target: LYN (Homo sapiens, UniProt P07948); details: read-out: %Inh LYN
Chain of LYN (P07948 whole entry): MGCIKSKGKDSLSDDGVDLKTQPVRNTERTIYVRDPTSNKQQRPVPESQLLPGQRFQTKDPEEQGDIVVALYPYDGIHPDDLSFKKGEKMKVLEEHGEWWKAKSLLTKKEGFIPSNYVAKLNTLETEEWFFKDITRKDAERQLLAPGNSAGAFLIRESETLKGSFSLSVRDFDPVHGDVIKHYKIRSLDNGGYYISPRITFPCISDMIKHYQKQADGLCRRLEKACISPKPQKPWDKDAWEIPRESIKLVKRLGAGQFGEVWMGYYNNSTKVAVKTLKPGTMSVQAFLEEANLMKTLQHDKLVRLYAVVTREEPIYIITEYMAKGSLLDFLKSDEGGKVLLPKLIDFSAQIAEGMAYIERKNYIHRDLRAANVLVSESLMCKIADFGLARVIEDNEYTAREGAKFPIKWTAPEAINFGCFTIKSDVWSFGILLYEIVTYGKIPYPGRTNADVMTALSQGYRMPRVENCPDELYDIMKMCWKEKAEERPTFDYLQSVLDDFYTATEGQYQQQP

[8] = molecular target: T2, LATS1 (Homo sapiens, UniProt O95835); details: read-out: %Inh LATS1
T2 sequence (O95835 1-1130): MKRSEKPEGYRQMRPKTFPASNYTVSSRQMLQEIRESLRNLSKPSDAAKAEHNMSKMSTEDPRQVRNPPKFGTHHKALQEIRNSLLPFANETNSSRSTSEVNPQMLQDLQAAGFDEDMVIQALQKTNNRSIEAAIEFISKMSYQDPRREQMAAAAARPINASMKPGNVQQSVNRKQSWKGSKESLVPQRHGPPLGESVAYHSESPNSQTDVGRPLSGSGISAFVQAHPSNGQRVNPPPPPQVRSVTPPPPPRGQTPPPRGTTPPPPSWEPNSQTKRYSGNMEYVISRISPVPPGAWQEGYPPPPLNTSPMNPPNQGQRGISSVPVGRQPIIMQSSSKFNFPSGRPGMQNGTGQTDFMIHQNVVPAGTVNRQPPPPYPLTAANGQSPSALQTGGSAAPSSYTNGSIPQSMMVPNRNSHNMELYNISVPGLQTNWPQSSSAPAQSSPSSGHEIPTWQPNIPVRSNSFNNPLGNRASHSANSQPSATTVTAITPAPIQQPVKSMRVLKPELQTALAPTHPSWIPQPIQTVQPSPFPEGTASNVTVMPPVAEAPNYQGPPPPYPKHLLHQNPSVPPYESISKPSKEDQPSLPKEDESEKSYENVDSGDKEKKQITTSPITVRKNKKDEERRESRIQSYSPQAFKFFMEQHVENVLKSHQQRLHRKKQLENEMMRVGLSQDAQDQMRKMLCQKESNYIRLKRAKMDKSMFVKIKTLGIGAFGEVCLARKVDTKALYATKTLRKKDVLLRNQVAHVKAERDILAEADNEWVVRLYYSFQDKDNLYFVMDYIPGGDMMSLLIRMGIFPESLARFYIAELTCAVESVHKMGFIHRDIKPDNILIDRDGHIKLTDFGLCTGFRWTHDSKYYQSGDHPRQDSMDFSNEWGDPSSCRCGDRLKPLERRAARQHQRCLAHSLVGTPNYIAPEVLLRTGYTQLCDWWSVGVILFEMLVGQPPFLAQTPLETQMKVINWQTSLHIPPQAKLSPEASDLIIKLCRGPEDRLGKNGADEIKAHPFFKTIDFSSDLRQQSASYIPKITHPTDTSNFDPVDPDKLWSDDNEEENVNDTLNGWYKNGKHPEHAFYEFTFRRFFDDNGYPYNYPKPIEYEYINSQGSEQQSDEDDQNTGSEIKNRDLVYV

Chain of JNK2 (P45984 whole entry): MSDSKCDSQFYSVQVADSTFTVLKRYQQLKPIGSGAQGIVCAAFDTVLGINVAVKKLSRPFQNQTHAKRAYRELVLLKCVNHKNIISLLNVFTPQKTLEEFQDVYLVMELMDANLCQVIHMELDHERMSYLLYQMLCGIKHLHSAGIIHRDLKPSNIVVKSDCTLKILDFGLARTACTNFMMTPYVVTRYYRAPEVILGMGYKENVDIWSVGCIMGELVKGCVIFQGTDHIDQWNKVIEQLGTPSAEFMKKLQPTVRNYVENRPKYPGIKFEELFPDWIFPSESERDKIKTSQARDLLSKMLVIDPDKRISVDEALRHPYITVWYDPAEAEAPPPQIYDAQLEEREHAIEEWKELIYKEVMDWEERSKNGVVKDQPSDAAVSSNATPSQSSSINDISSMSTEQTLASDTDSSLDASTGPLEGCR

Row | SMILES | inhibition at 1 µM [1] [%] | inhibition at 1 µM [2] [%] | inhibition at 1 µM [3] [%] | inhibition at 1 µM [4] [%] | inhibition at 1 µM [5] [%] | inhibition at 1 µM [6] [%] | inhibition at 1 µM [7] [%] | inhibition at 1 µM [8] [%]
1 | Cn1cc(-c2cnc(N)c3c(-c4ccc5c(c4)CCN5C(=O)Cc4ccccc4)csc23)cn1 [UNC10225012A] | 0 | 17 | 0 | 5 | 92.2 | 0 | 65 | 1
2 | CS(=O)(=O)Cc1ccc(Nc2nccc(-c3c(-c4cccc(NC(=O)C5CCCCC5)c4)nn4ncccc34)n2)cc1 [UNC10225159A] | 49 | 34 | 0 | 0 | 2 | 0 | 16 | 0
3 | Cc1ccc(NC(=O)Nc2cccc(C(F)(F)F)c2)cc1 [UNC10225187A] | 26 | 0 | 0 | 0 | 0 | 0 | 0 | 0
4 | COc1cccc(OC)c1C(=O)Nc1cccc(-c2nn3ccccc3c2-c2ccnc(Nc3cccc(F)c3)n2)c1 [UNC10225310A] | 0 | 0 | 0 | 24 | 19 | 0 | 8 | 6
5 | O=c1cc(N2CCOCC2)nc2n(Cc3cccc(Cl)c3Cl)c(C3CC3)nn12 [UNC10225469A] | 0 | 0 | 0 | 4 | 0 | 0 | 0 | 0

Source: publication PMC5540273, “Progress towards a public chemogenomic set for protein kinases and a call for contributions” (PLoS ONE, 2017)
